Measurements taken from patent US11892406B2, “Method and device for assaying the interaction and dynamics of permeation of a molecule and a lipid bilayer” (DUBLIN CITY UNIVERSITY, priority 2018, dated 2024).

Legend:
Format in all cases: in vitro ADME
[1] = Metal enhanced fluorescence permeation assay, ternary domain forming lipid bilayer on gold microcavity array; details: 0.1 mM
Protocol: (§1) Following removal of PS spheres, if in place, washing and aqueous filling of the array a Langmuir monolayer of lipids was spread across the micropore array, using either a Model 102M, LB trough or Model KN2006 from KSV-NIMA technology, LB alternate. The lipid mixture (across single or diverse lipid compositions) was prepared in chloroform at a concentration of 1 mg/ml. 50 μL of this solution was suspended on the water sub-phase. Fifteen minutes were allocated for evaporation of the solvent, prior to lipid monolayer compression. […]
(§2) A Horiba Labram HR instrument was used for both Raman and fluorescence measurements using a 50× long distance magnification objective (Leica). The wavelengths were typically 473 nm and 785 nm were used for fluorescence measurements and Raman measurements respectively. […] Typically a 1% neutral density filter and 300 μm slit were used for fluorescence and no filter for Raman. […]
(§3) For drug/molecular diffusion studies, drug solutions were prepared as stock solutions for introduction into the bilayer contacting solution dissolved in PBS or Tris buffer at concentrations that permitted final concentrations (on contact with the bilayer buffer) of 1 nM to several millimolar. […] Drug diffusion samples were analysed by first obtaining a bilayer spectra while sample is immersed in PBS. […]

[2] = Metal enhanced fluorescence permeation assay, DOPC bilayer spanned over gold microcavity array
Protocol: as §1, §2, §3

[3] = SERS permeation assay, DOPC lipid bilayer suspended over gold cavity array; details: 1 um gold array, PBS buffer, 785 nm
Protocol: as §1, §2, §3

## COc1cccc2c1C(=O)c1c(O)c3c(c(O)c1C2=O)C[C@@](O)(C(C)=O)C[C@@H]3O[C@H]1C[C@H](N)[C@H](O)[C@H](C)O1 [Duanorubicin]
[1]; 2-hour window, two replicate measurements, DOPC:SM:Chol 40:40:20
  permeability of ternary lipid bilayer to the drug: impermeable
[1]; unstirred solution, ternary bilayer
  time for emission to reach steady state: less than 20 mins

## COc1cccc2c1C(=O)c1c(O)c3c(c(O)c1C2=O)C[C@@](O)(C(=O)CO)C[C@@H]3O[C@H]1C[C@H](N)[C@H](O)[C@H](C)O1 [Doxorubicin]
[2]; 0.1 mM, 2-hour monitoring, 1 μm diameter gold array
  permeation through DOPC bilayer (fluorescent peak area at 600 nm vs time): diffusing through the bilayer

## CC(C)Cc1ccc(C(C)C(=O)O)cc1 (centres unmarked) [Ibuprofen]
[3]
  permeability across DOPC bilayer (dynamics of evolution of SERS signal, presence vs absence of bilayer): passively permeable

## [Ru+2].c1ccc(-c2ccccn2)nc1.c1ccc(-c2ccccn2)nc1.c1ccc(-c2ccccn2)nc1 [[Ru(bpy)3[ complex]
[2]; DOPC bilayers, fluorescence
  membrane permeability at DOPC bilayers (second emission rise and plateau): impermeable
